What was measured:
Aβ plaques = target: T1, Aβ plaques (Homo sapiens, UniProt P05067); experiment: Autoradiographical analysis of binding to cryosections from cortex of AD patients and controls; conditions: F-18 labeled compound; Alzheimer's disease patients (AD) vs controls without Aβ plaques
T1 construct: controls without Aβ plaques; from tissue; host or cells: frontal lobe / cortex sections (frozen and paraffin) from AD patients, FTD patients and age-matched controls
In short: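 Frozen (18 μm) and deparaffinized paraffin (6 μm) frontal-lobe sections from Alzheimer's, frontotemporal dementia and age-matched control brains were incubated 1.5 h at room temperature with F-18 test compound at 10 Bq/μl in 25 mM Hepes pH 7.4, 0.1% BSA. Blocking used 1000-fold excess unlabeled compound; phosphoimager readout.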

[1] = Biodistribution: organ distribution of F-18 signal in mice; format: in vivo, male NMRI mice; conditions: for Organ distribution of F-18 signal, intestine: intestine (with content); for Organ distribution of F-18 signal, stomach: stomach (without content)
In short: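 Male NMRI mice (~30 g, 3 per time point) received ca. 150 kBq of the test compound i.v. via tail vein. At 2, 5, 30, 60 and 240 min, urine and feces were collected and organs and tissues taken for gamma counting. Values are decay-corrected % ID/g ± SD.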

T1 sequence (P05067 672-713 limits assumed): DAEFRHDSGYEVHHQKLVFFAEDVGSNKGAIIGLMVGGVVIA

Organ distribution of F-18 signal, adrenals ([1]; 2 min post i.v. injection): 16.31 % ID/g
Organ distribution of F-18 signal, adrenals ([1]; 5 min post i.v. injection): 6.14 % ID/g
Organ distribution of F-18 signal, adrenals ([1]; 30 min post i.v. injection): 1.57 % ID/g
Organ distribution of F-18 signal, adrenals ([1]; 60 min post i.v. injection): 1.35 % ID/g
Organ distribution of F-18 signal, adrenals ([1]; 240 min post i.v. injection): 0.23 % ID/g
Organ distribution of F-18 signal, blood ([1]; 2 min post i.v. injection): 2.05 % ID/g
Organ distribution of F-18 signal, blood ([1]; 5 min post i.v. injection): 2.36 % ID/g
Organ distribution of F-18 signal, blood ([1]; 30 min post i.v. injection): 1.30 % ID/g
Organ distribution of F-18 signal, blood ([1]; 60 min post i.v. injection): 0.33 % ID/g
Organ distribution of F-18 signal, blood ([1]; 240 min post i.v. injection): 0.08 % ID/g
Organ distribution of F-18 signal, brain ([1]; 2 min post i.v. injection): 3.87 % ID/g
Organ distribution of F-18 signal, brain ([1]; 5 min post i.v. injection): 3.14 % ID/g
Organ distribution of F-18 signal, brain ([1]; 30 min post i.v. injection): 0.52 % ID/g
Organ distribution of F-18 signal, brain ([1]; 60 min post i.v. injection): 0.13 % ID/g
Organ distribution of F-18 signal, brain ([1]; 240 min post i.v. injection): 0.02 % ID/g
Organ distribution of F-18 signal, fat ([1]; 2 min post i.v. injection): 1.05 % ID/g
Organ distribution of F-18 signal, fat ([1]; 5 min post i.v. injection): 2.17 % ID/g
Organ distribution of F-18 signal, fat ([1]; 30 min post i.v. injection): 1.02 % ID/g
Organ distribution of F-18 signal, fat ([1]; 60 min post i.v. injection): 0.59 % ID/g
Organ distribution of F-18 signal, fat ([1]; 240 min post i.v. injection): 0.02 % ID/g
Organ distribution of F-18 signal, femur ([1]; 2 min post i.v. injection): 1.44 % ID/g
Organ distribution of F-18 signal, femur ([1]; 5 min post i.v. injection): 1.38 % ID/g
Organ distribution of F-18 signal, femur ([1]; 30 min post i.v. injection): 0.55 % ID/g
Organ distribution of F-18 signal, femur ([1]; 60 min post i.v. injection): 0.24 % ID/g
Organ distribution of F-18 signal, femur ([1]; 240 min post i.v. injection): 0.13 % ID/g
Organ distribution of F-18 signal, heart ([1]; 2 min post i.v. injection): 3.67 % ID/g
Organ distribution of F-18 signal, heart ([1]; 5 min post i.v. injection): 3.81 % ID/g
Organ distribution of F-18 signal, heart ([1]; 30 min post i.v. injection): 0.93 % ID/g
Organ distribution of F-18 signal, heart ([1]; 60 min post i.v. injection): 0.20 % ID/g
Organ distribution of F-18 signal, heart ([1]; 240 min post i.v. injection): 0.06 % ID/g
Organ distribution of F-18 signal, intestine ([1]; 2 min post i.v. injection): 2.27 % ID/g
Organ distribution of F-18 signal, intestine ([1]; 5 min post i.v. injection): 2.90 % ID/g
Organ distribution of F-18 signal, intestine ([1]; 30 min post i.v. injection): 11.37 % ID/g
Organ distribution of F-18 signal, intestine ([1]; 60 min post i.v. injection): 13.11 % ID/g
Organ distribution of F-18 signal, intestine ([1]; 240 min post i.v. injection): 13.53 % ID/g
Organ distribution of F-18 signal, kidney ([1]; 2 min post i.v. injection): 7.60 % ID/g
Organ distribution of F-18 signal, kidney ([1]; 5 min post i.v. injection): 8.59 % ID/g
Organ distribution of F-18 signal, kidney ([1]; 30 min post i.v. injection): 7.84 % ID/g
Organ distribution of F-18 signal, kidney ([1]; 60 min post i.v. injection): 2.86 % ID/g
Organ distribution of F-18 signal, kidney ([1]; 240 min post i.v. injection): 0.79 % ID/g
Organ distribution of F-18 signal, liver ([1]; 2 min post i.v. injection): 8.19 % ID/g
Organ distribution of F-18 signal, liver ([1]; 5 min post i.v. injection): 13.46 % ID/g
Organ distribution of F-18 signal, liver ([1]; 30 min post i.v. injection): 5.20 % ID/g
Organ distribution of F-18 signal, liver ([1]; 60 min post i.v. injection): 1.87 % ID/g
Organ distribution of F-18 signal, liver ([1]; 240 min post i.v. injection): 0.90 % ID/g
Organ distribution of F-18 signal, lung ([1]; 2 min post i.v. injection): 3.63 % ID/g
Organ distribution of F-18 signal, lung ([1]; 5 min post i.v. injection): 3.93 % ID/g
Organ distribution of F-18 signal, lung ([1]; 30 min post i.v. injection): 1.27 % ID/g
Organ distribution of F-18 signal, lung ([1]; 60 min post i.v. injection): 0.42 % ID/g
Organ distribution of F-18 signal, lung ([1]; 240 min post i.v. injection): 0.12 % ID/g
Organ distribution of F-18 signal, muscle ([1]; 2 min post i.v. injection): 1.94 % ID/g
Organ distribution of F-18 signal, muscle ([1]; 5 min post i.v. injection): 2.14 % ID/g
Organ distribution of F-18 signal, muscle ([1]; 30 min post i.v. injection): 0.62 % ID/g
Organ distribution of F-18 signal, muscle ([1]; 60 min post i.v. injection): 0.26 % ID/g
Organ distribution of F-18 signal, muscle ([1]; 240 min post i.v. injection): 0.03 % ID/g
Organ distribution of F-18 signal, pancreas ([1]; 2 min post i.v. injection): 4.49 % ID/g
Organ distribution of F-18 signal, pancreas ([1]; 5 min post i.v. injection): 4.49 % ID/g
Organ distribution of F-18 signal, pancreas ([1]; 30 min post i.v. injection): 1.64 % ID/g
Organ distribution of F-18 signal, pancreas ([1]; 60 min post i.v. injection): 0.32 % ID/g
Organ distribution of F-18 signal, pancreas ([1]; 240 min post i.v. injection): 0.11 % ID/g
Organ distribution of F-18 signal, skin ([1]; 2 min post i.v. injection): 1.12 % ID/g
Organ distribution of F-18 signal, skin ([1]; 5 min post i.v. injection): 1.84 % ID/g
Organ distribution of F-18 signal, skin ([1]; 30 min post i.v. injection): 1.17 % ID/g
Organ distribution of F-18 signal, skin ([1]; 60 min post i.v. injection): 0.43 % ID/g
Organ distribution of F-18 signal, skin ([1]; 240 min post i.v. injection): 0.06 % ID/g
Organ distribution of F-18 signal, spleen ([1]; 2 min post i.v. injection): 1.67 % ID/g
Organ distribution of F-18 signal, spleen ([1]; 5 min post i.v. injection): 2.25 % ID/g
Organ distribution of F-18 signal, spleen ([1]; 30 min post i.v. injection): 0.78 % ID/g
Organ distribution of F-18 signal, spleen ([1]; 60 min post i.v. injection): 0.12 % ID/g
Organ distribution of F-18 signal, spleen ([1]; 240 min post i.v. injection): 0.04 % ID/g
Organ distribution of F-18 signal, stomach ([1]; 2 min post i.v. injection): 3.81 % ID/g
Organ distribution of F-18 signal, stomach ([1]; 5 min post i.v. injection): 3.68 % ID/g
Organ distribution of F-18 signal, stomach ([1]; 30 min post i.v. injection): 2.88 % ID/g
Organ distribution of F-18 signal, stomach ([1]; 60 min post i.v. injection): 2.07 % ID/g
Organ distribution of F-18 signal, stomach ([1]; 240 min post i.v. injection): 0.46 % ID/g
Organ distribution of F-18 signal, tail ([1]; 2 min post i.v. injection): 5.14 % ID/g
Organ distribution of F-18 signal, tail ([1]; 5 min post i.v. injection): 4.06 % ID/g
Organ distribution of F-18 signal, tail ([1]; 30 min post i.v. injection): 2.28 % ID/g
Organ distribution of F-18 signal, tail ([1]; 60 min post i.v. injection): 0.67 % ID/g
Organ distribution of F-18 signal, tail ([1]; 240 min post i.v. injection): 0.31 % ID/g
Organ distribution of F-18 signal, testicle ([1]; 2 min post i.v. injection): 1.42 % ID/g
Organ distribution of F-18 signal, testicle ([1]; 5 min post i.v. injection): 1.73 % ID/g
Organ distribution of F-18 signal, testicle ([1]; 30 min post i.v. injection): 0.79 % ID/g
Organ distribution of F-18 signal, testicle ([1]; 60 min post i.v. injection): 0.27 % ID/g
Organ distribution of F-18 signal, testicle ([1]; 240 min post i.v. injection): 0.04 % ID/g
Organ distribution of F-18 signal, thyroid ([1]; 2 min post i.v. injection): 3.00 % ID/g
Organ distribution of F-18 signal, thyroid ([1]; 5 min post i.v. injection): 2.94 % ID/g
Organ distribution of F-18 signal, thyroid ([1]; 30 min post i.v. injection): 0.94 % ID/g
Organ distribution of F-18 signal, thyroid ([1]; 60 min post i.v. injection): 0.30 % ID/g
Organ distribution of F-18 signal, thyroid ([1]; 240 min post i.v. injection): 0.16 % ID/g
Compound: O=C(NCC(=O)N1CCN(c2ccc(OCc3ccccc3)cn2)CC1)c1ccnc([18F])c1 [Example 14f, [^18F]-N-(2-{4-[5-(benzyloxy)pyridin-2-yl]piperazin-1-yl}-2-oxoethyl)-2-fluoropyridine-4carboxamide]
autoradiographical analysis of binding to cryosections from cortex (Aβ plaques): Specific binding in plaque-rich regions of AD samples

From patent US20110250135A1, “Piperazine Derivatives for Binding and Imaging Amyloid Plaques and Their Use” (Bayer Schering Pharma Aktiengesellschaft, priority 2008, published 2011)
